Laboratory results reported in patent publication US5721356A, “Orally active adenosine kinase inhibitors” (Gensia, Inc., priority 1995, dated 1998).
Like-named read-outs stand apart in the source and are kept apart here.

Key:
[1] = system: rat cardiomyocytes; details: cited from earlier work
[2] = system: isolated guinea pig hearts; details: cited from earlier work
[3] = system: anesthetized rats; details: cited from earlier work
[4] = system: mice; details: cited from earlier work
[5] = system: rat and guinea pig brain slices; details: cited from earlier work
[6] = system: mice; details: interpreted as skeletal muscle relaxation; cited from earlier work
[7] = system: dog hearts; details: cited from earlier work
[8] = system: ischemic cerebral injury; details: Phillis et al.; cited from earlier work
[9] = system: isolated rat hearts; details: perfused with 5-iodotubercidin alone, cited from earlier work
[10] = system: male SA rats; assay: Analgesic activity, hot plate model; type: in vivo; details: Rattus norvegicus, po
Text: (§1) Ther., 250:3, 915-922 (1989). See also, Life Sciences 51:171-76 (1992). These models measure pain avoidance and tolerance in response to a regulated stimulus, and compare the response of animals before and after they are given test compound.

[11] = system: carrageenan-induced paw swelling in rats; assay: Anti-inflammatory activity, carrageenan paw swelling; type: in vivo, rat; details: po, 10 mg/kg, paw swelling 3 hours after carrageenan, vs vehicle
Description: Carrageenan (Type λ) was suspended in sterile PBS at 1% (w/v), autoclaved for 30 minutes, and stored at room temperature. Rats were pretreated with vehicle or AK inhibitor (10 mg/kg) by oral gavage or i.p. administration and the volume of the left hind paw was measured using a water displacement plethysmometer (Stoelting Co., Wood Dale, Ill.). One hour after oral treatment or 30 minutes after i.p. treatment, the rats were briefly anesthetized, and 0.1 ml of the carrageenan solution was injected subcutaneously into the planar surface of the left hind paw. The ensuing paw swelling was measured by plethysmometry after 3 hours. The paw volume in millileters was subtracted from the pre-injection paw volume. Data are presented as the percent inhibition of paw swelling in AK inhibitor treated animals, compared to vehicle treated control animals.

[12] = system: male SA rats; assay: Analgesic activity, tail flick model; type: in vivo; details: Rattus norvegicus, po
Text: as §1

[13] = target: T1, partially purified pig heart adenosine kinase (Sus scrofa, UniProt A0A5G2R0F5); assay: Adenosine kinase (AK) inhibition; type: biochemical
T1 construct: partially purified pig heart adenosine kinase; from tissue; host or cells: pig heart
Description: Adenosine kinase activity was measured essentially as described by Yamada et al. Biochim. Biophys. Acta 660, 36-43 […] with a few minor modifications. Assay mixtures contained 50 mM TRIS-maleate buffer, pH 7.0, 0.1% BSA, 1 mM ATP 1 mM MgCl2, 0.5 μM [U-^14 C]adenosine (400-600 mCi/mmol) and varying duplicate concentrations of inhibitor. The reactions were initiated by addition of approximately 0.1 μU partially purified pig heart adenosine kinase, where one unit is defined as that amount of enzyme required to phosphorylate 1 μmol adenosine per minute. The reactions were incubated for 20 minutes at 37° C. The assay was quenched upon spotting 30 μL aliquots onto 2 cm^2 pieces of Whatman DE81 anion exchange paper. The paper squares were washed for 3 minutes in 6 L distilled/deionized water to remove the unreacted adenosine. […] The amount of ^14 C-AMP was quantified by scintillation counting.

[14] = system: male SA rats; assay: Anticonvulsant activity, maximal electroshock (MES) model, suppression of hind limb tonic extension; type: in vivo; details: Rattus norvegicus, 1 h, one hour before seizure testing
[15] = Oral bioavailability in dogs (oral vs intravenous AUC); type: in vivo, dog (female beagles); details: dog, plasma, 10 mg/kg, read-out: % Oral Availability
Description: Oral bioavailability was determined by comparing the dose corrected areas under the plasma-concentration time curve (AUC) to infinity for the each tested compound, given orally and intravenously in dogs. […] One dog received this solution at an infusion rate of 0.1 mL/min for 20 minutes. The other dog received a 0.2 mL/in infusion for 10 minutes. […] The plasma was separated within 10 minutes of blood collection and was stored frozen. The plasma concentration of compound was then determined for these IV infusions. […] The plasma concentration of compound was determined for this oral administration. The samples were assayed for intact adenosine kinase inhibitor by high performance liquid chromatography (HPLC). An internal standard was added to each test sample and standard sample. Each was then extracted with 10 volumes of 1% v/v dimethylsulfoxide in acetonitrile. […] The dried residue was reconstituted in mobile phase and the contents were analyzed for the adenosine kinase inhibitor (AKI) on HPLC. […] Pharmacokinetic parameters were calculated from the plasma concentration vs. time data, using standard non-compartmental methods. […] et al., Pharmacokinetics., 2[…]. (1983).

[16] = po, fasted, read-out: Anticonvulsant ED50 (MES), po

T1 sequence (A0A5G2R0F5 1-362): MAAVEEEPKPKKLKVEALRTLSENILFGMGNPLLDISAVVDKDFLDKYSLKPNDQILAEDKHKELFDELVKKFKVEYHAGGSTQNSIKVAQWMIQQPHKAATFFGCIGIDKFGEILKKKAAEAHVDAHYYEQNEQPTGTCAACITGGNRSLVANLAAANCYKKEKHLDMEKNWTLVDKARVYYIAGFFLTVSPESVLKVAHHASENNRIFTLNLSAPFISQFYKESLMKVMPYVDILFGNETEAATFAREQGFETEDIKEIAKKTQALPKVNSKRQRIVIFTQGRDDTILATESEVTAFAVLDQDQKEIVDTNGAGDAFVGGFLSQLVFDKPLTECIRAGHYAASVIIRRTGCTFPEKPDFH

## OC[C@H]1O[C@@H](n2cnc3c2NC=NC[C@H]3O)C[C@@H]1O [2'-deoxycoformycin]
[1]; inhibition of adenosine deaminase alone
  effect on adenosine release: no effect on adenosine release from the cells

## NC[C@H]1O[C@@H](n2cnc3c(N)ncnc32)[C@H](O)[C@@H]1O [5'-amino-5'-deoxyadenosine]
[2]; absence of ADA inhibition
  adenosine release effects without ADA inhibition: not apparent in the absence of ADA inhibition
[2]; perfusion medium, in the presence of EHNA
  increase of adenosine release: 15 fold
[1]; inhibition of ADA together with adenosine kinase
  increase in adenosine release: 6 fold

## C[C@H]1O[C@@H](n2cc(I)c3c(N)ncnc32)[C@H](O)[C@@H]1O [5'-deoxy-5-iodotubercidin]
[3]
  blood pressure and heart rate: decrease blood pressure and heart rate in anesthetized rats
[4]
  hypothermia: hypothermia in mice
[5]
  adenosine uptake: adenosine uptake was reportedly inhibited
[6]
  flaccidity and spontaneous locomotor activity: pronounced general flaccidity and much-reduced spontaneous locomotor activity in mice

## Nc1ncnc2c1c(I)cn2[C@@H]1O[C@H](CO)[C@@H](O)[C@H]1O [5-iodotubercidin]
[7]
  effects in ischemia and reperfusion model: inconsistent effects
[3]
  blood pressure and heart rate: decrease blood pressure and heart rate in anesthetized rats
[8]
  protection against ischemic cerebral injury: does not protect against ischemic cerebral injury
[4]
  hypothermia: hypothermia in mice
[5]
  adenosine uptake: adenosine uptake was reportedly inhibited
[6]
  flaccidity and spontaneous locomotor activity: pronounced general flaccidity and much-reduced spontaneous locomotor activity in mice
[9]; hypoxic, anoxic or ischemic conditions
  perfusate adenosine concentration: no increase in perfusate adenosine concentration
[9]; normoxic conditions
  perfusate adenosine concentration: no increase in perfusate adenosine concentration

## C[C@H]1O[C@@H](n2cc(-c3ccccc3)c3c(Nc4ccc(F)cc4)ncnc32)[C@H](O)[C@@H]1O [#1, 4-N-(4-fluorophenyl)amino-5-phenyl-7-(5-deoxy-1-β-D-ribofuranosyl)pyrrolo(2,3-d)pyrimidine]
[10]
  ED50: 16.9 mg/kg
[11]
  Carrageenan Paw (% inh): 0.2%
[12]
  ED50: < 10 mg/kg
[13]
  IC50: 11 nM
[14]; ip, >5 or <5 = fewer or more than 50% inhibited in initial screen at 5 mg/kg ip, read-out: Anticonvulsant ED50 (MES), ip
  ED50: 1.9 mg/kg
[14]; [16]
  ED50: 5.1 mg/kg

## C[C@H]1O[C@@H](n2cc(-c3ccccc3)c3c(Nc4ccc(C#N)cc4)ncnc32)[C@H](O)[C@@H]1O [#21, 4-N-(4-cyanophenyl)amino-5-phenyl-7-(5-deoxy-1-β-D-ribofuranosyl)pyrrolo[2,3-d]pyrimidine]
[15]
  bioavailability: 23%
[13]
  IC50: 14 nM
[14]; [16]
  ED50: > 20 mg/kg
